Literature values in patent US6800300B1, “Method for treating autoimmune and alloimmune diseases” (Vasogen Ireland Limited, priority 2000, dated 2004).
Where a name gives a salt, the structure may show the parent alone.

Assays:
[1] = system: TNF-α production by lymphocytes and macrophages
serum TNF = conditions: endotoxin-induced shock rat model

SMILES | production of TNF-α [1] | serum TNF concentrations (serum TNF)
COc1ccc(C2CNC(=O)C2)cc1OC1CCCC1 (centres unmarked) [4-(3-cyclopentyloxy4-methoxyphenyl)-2-pyrrolidone] | down-regulate the production of TNF-α | 
C[C@H](Cc1ccccc1)Nc1ncnc2c1ncn2[C@@H]1O[C@H](CO)[C@@H](O)[C@H]1O [R-phenylisopropyladenosine (R-PIA), R-phenylisopropyladenosine] |  | reduce serum TNF concentrations
CC(=O)O[C@H]1C[C@@]2(C)[C@@H](C[C@@H](O)[C@H]3[C@@]4(C)CC[C@@H](O)[C@@H](C)[C@@H]4CC[C@@]32C)/C1=C(\CCC=C(C)C)C(=O)O [fusidic acid (sodiun salt), fusidic acid] |  | reduce serum TNF concentrations
N=C(N)c1ccc(OCCCCCOc2ccc(C(=N)N)cc2)cc1 [pentamidine (isethionate), pentamidine] |  | reduce serum TNF concentrations
CC(=O)CCCCn1c(=O)c2c(ncn2C)n(C)c1=O [pentoxifylline] |  | reduce serum TNF concentrations
